Structures can show the parent of a compound that is named as a salt. Where two headings read alike, the source gives them in different places.

Data set [1] in a line: Stability in mouse liver microsomes. The format is in vitro ADME. The protocol:
Selected compounds were routinely screened for aqueous solubility in PBS (pH 7.4), transit performance in MDCK-MDR1 cell lines for permeability, and metabolic stability in MLM and HLM as a measure of clearance. The main metabolites and routes of metabolism of 4y were determined in MLM. Assay protocols and additional data are presented in the Supplementary Material (Tables S1–S7). ADME studies reported in this work were performed by WuXi AppTec (Shanghai, China).
Representative assay protocols have been described in detail. ^1,2
In general terms: Liver microsomes are a subcellular fraction often used to study metabolism.

In data set [2] the target is T1, Notum (core, 81–451C330S) (Homo sapiens, UniProt Q6P988, C330S).
T1 construct: high-throughput biochemical assay with Notum (81–451C330S) and OPTS as a synthetic fluorescent substrate; made in house
T1 sequence (Q6P988 81-451 C330S): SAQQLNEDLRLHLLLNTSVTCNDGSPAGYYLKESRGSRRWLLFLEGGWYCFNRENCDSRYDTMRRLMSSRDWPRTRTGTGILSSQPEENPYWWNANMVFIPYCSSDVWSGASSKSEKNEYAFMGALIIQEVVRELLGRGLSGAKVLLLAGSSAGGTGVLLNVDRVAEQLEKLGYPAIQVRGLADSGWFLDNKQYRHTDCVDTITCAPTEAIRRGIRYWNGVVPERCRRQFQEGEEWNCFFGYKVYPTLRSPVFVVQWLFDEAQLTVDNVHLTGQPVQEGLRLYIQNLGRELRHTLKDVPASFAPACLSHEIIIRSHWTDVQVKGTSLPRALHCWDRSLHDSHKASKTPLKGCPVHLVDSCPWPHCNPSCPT
As to the kind of experiment: Notum-OPTS biochemical assay, Notum (81–451C330S). The settings on record: for IC50 / Notum IC50: >10 = 20–50% inhibition @ 10 μM; for IC50: read-out: Notum IC50; for fold decrease in Notum inhibition compared to 3a: weaker. The method, then:
Notum inhibitors 3–5 (Table 1, Table 2, Table 3, Table 4) were either purchased or prepared using established synthetic methods from readily available starting materials (Scheme 1). Where necessary, the synthesis of many of these amines (e.g. 6) have been reported previously and full details of their preparation have been included in the Experimental Section. Notum inhibition activity was determined using the standard Notum-OPTS biochemical assay using IC50 values. These values were used to compare relative activities with covalent inhibitors under carefully regulated assay conditions. […] Selected inhibitors were screened for inhibition of Notum activity in a TCF/LEF Reporter (Luciferase) cell line with exogenous WNT3a and Notum, and soaked into Notum crystals to determine their binding modes and evidence of MoA.
Methods have been described in detail.

The mark [3] stands for this setting: mouse, read-out: MLM Stability t1/2.
The mark [4] stands for this setting: Table 1, mean ± s.d. of n = 2–6, inactive = <20% inhibition @ 10 μM, 2a covalent, IC50 time-dependant.
Where [5] appears, read: Table 2, mean ± s.d. of n = 4–12.
Setting [6] is: Table 4, mean ± s.d. of n = 4–8.

One may read the IC50 as the concentration at which inhibition is half-maximal. `CC(=O)N1CCc2ccccc21` [Compound 3a, 1-(Indolin-1-yl)ethan-1-one]: the “MLM Stability Cli” value in data set [1] is 180 µL/min/mg protein. Besides, the half-life in data set [1] (setting [3]) turned out to be 8 min. The IC50 in data set [2] (setting [4]) was 400 ± 110 nM. The same compound displayed an LE in data set [2] (ligand efficiency from Notum OPTS IC50) of 0.75. This compound also gave an LLE in data set [2] (lipophilic ligand efficiency from Notum OPTS IC50 and clogP) of 5.0. In addition, the “fold more potent than 2b (Notum IC50)” value in data set [2] (vs 2b) is 7 fold. Turning to `CC(=O)n1ccc2ccccc21` [Compound 3b, 1-(1H-Indol-1-yl)ethan-1-one], in data set [2] (setting [4]), the IC50 amounted to 5300 ± 1200 nM. Besides, the “fold decrease in Notum inhibition compared to 3a” value in data set [2] (vs 3a) is 10 fold. For `CC(=O)N1CCCc2ccccc21` [Compound 3c, 1-(3,4-Dihydroquinolin-1(2H)-yl)ethan-1-one], in that order: 2500 ± 1000 nM and 6 fold.

`CC(=O)N1Cc2ccccc2C1` [Compound 3d, 1-(Isoindolin-2-yl)ethan-1-one]: the IC50 in data set [2] (setting [4]) was 2200 ± 400 nM. Same read-out and setting: in the case of `CC(=O)N1CCc2ccccc2C1` [Compound 3e, 1-(3,4-Dihydroisoquinolin-2(1H)-yl)ethan-1-one] it was 8000 ± 2200 nM.

Regarding `CC(=O)N1CCC(c2ccccc2)C1` (centres unmarked) [Compound 3f, 1-(3-Phenylpyrrolidin-1-yl)ethan-1-one], in data set [2] (setting [4]), the “Notum IC50” value is “inactive ^c”. As to `O=C1CCCN1c1ccccc1` [Compound 3g, 1-Phenylpyrrolidin-2-one], the IC50 in data set [2] (setting [4]) is over 10000 nM. As to `CC(=O)N(C)c1ccccc1C` [Compound 3h, N-Methyl-N-(o-tolyl)acetamide], the half-inhibitory concentration (IC50) in data set [2] (setting [4]) is over 10000 nM. Still for that read-out and setting: in the case of `CC(=O)N1CC(=O)c2ccccc21` [Compound 3i, 1-Acetylindolin-3-one] it was 690 ± 120 nM; in that of `CC(=O)N1C(=O)Cc2ccccc21` [Compound 3j, 1-Acetylindolin-2-one], 3200 ± 660 nM. In the case of `CC(=O)n1ncc2ccccc21` [Compound 3k, 1-(1H-Indazol-1-yl)ethan-1-one], the concentration for half-maximal inhibition (IC50) in data set [2] (setting [4]) is over 10000 nM. `CC(=O)n1cnc2ccccc21` [Compound 3l, 1-(1H-Benzo[d]imidazole-1-yl)ethan-1-one]: in data set [2] (setting [4]), the “Notum IC50” value is “inactive ^c”.

As for `CC(=O)N1CCOc2ccccc21` [Compound 3m, 1-(2,3-Dihydro-4H-benzo[b][1,4]oxazin-4-yl)ethan-1-one], the IC50 in data set [2] (setting [4]) amounted to 2800 ± 1800 nM.

Consider `CC(=O)N1CCSc2ccccc21` [Compound 3n, 1-(2,3-Dihydro-4H-benzo[b][1,4]thiazin-4-yl)ethan-1-one], for which, in data set [2] (setting [4]), the IC50 stood at 3600 ± 100 nM. As for `CC(=O)N1CCS(=O)(=O)c2ccccc21` [Compound 3o, 1-(1,1-Dioxido-2,3-dihydro-4H-benzo[b][1,4]thiazin-4-yl)ethan-1-one], the IC50 in data set [2] (setting [4]) was over 10000 nM. Turning to `CC(=O)N1c2ccccc2CC1C` (centres unmarked) [Compound 4a, 1-(2-Methylindolin-1-yl)ethan-1-one], in data set [2] (setting [5]), the half-maximal inhibitory concentration (IC50) was 2400 ± 1200 nM. Regarding `CC(=O)N1CC2(CC2)c2c1cccc2C(F)(F)F` [Compound 4aa, 1-(4'-(Trifluoromethyl)spiro[cyclopropane-1,3′-indolin]-1′-yl)ethan-1-one], the “MLM Stability Cli” value in data set [1] amounted to 670 µL/min/mg protein. For the same compound, the half-life in data set [1] (setting [3]) is 2 min. The IC50 in data set [2] (setting [5]) was 17 ± 2 nM. For the compound `CC(=O)N1CC(C)c2ccccc21` (centres unmarked) [Compound 4b, 1-(3-Methylindolin-1-yl)ethan-1-one], the IC50 in data set [2] (setting [5]) is 260 ± 80 nM. In data set [2] (vs 3a, more potent), the “fold increase in Notum inhibition over 3a” value is 2 fold. With `CC(=O)N1CC(C)(C)c2ccccc21` [Compound 4c, 1-(3,3-Dimethylindolin-1-yl)ethan-1-one], the IC50 in data set [2] (setting [5]) amounted to 1400 ± 400 nM.

`CC(=O)N1CC2(CC2)c2ccccc21` [Compound 4d, 1-(Spiro[cyclopropane-1,3′-indolin]-1′-yl)ethan-1-one]: the “MLM Stability Cli” value in data set [1] is 360 µL/min/mg protein. For the same compound, the half-life in data set [1] (setting [3]) was determined as 3.8 min. For the same compound, in data set [2] (setting [5]), the IC50 came to 61 ± 12 nM.

In the case of `CC(=O)N1CC2(CCC2)c2ccccc21` [Compound 4e, 1-(Spiro[cyclobutane-1,3′-indolin]-1′-yl)ethan-1-one], in data set [2] (setting [5]), the IC50 came out at 1800 ± 1200 nM.

As for `CC(=O)N1c2ccccc2C2(C)CC12` (centres unmarked) [Compound 4f, 1-(6b-Methyl-1a,6b-dihydrocyclopropa[b]indol-2(1H)-yl)ethan-1-one], the IC50 in data set [2] (setting [5]) came to 4100 ± 800 nM. With `CC(=O)N1CCc2cc(Cl)ccc21` [Compound 4h, 1-(5-Chloroindolin-1-yl)ethan-1-one], in data set [2] (setting [5]), the IC50 was 95 ± 14 nM.

As to `CC(=O)N1CCc2ccc(Cl)cc21` [Compound 4i, 1-(6-Chloroindolin-1-yl)ethan-1-one], the IC50 in data set [2] (setting [5]) stood at 1400 ± 200 nM. The same measure, in the same setting: in the case of `CC(=O)N1CCc2cccc(Cl)c21` [Compound 4j, 1-(7-Chloroindolin-1-yl)ethan-1-one] it was 6400 ± 900 nM; in that of `CC(=O)N1CCc2c(C)cccc21` [Compound 4k, 1-(4-Methylindolin-1-yl)ethan-1-one], 83 ± 16 nM; in that of `CC(=O)N1CCc2c(C#N)cccc21` [Compound 4l, 1-Acetylindoline-4-carbonitrile], 1500 ± 200 nM. For `CC(=O)N1CCc2c(F)cccc21` [Compound 4m, 1-(4-Fluoroindolin-1-yl)ethan-1-one], the IC50 in data set [2] (setting [5]) is 93 ± 2 nM. As to `COc1cccc2c1CCN2C(C)=O` [Compound 4n, 1-(4-Methoxyindolin-1-yl)ethan-1-one], the IC50 in data set [2] (setting [5]) was 670 ± 70 nM.

Take `CC(=O)N1CCc2c(C3CC3)cccc21` [Compound 4p, 1-(4-Cyclopropylindolin-1-yl)ethan-1-one]: the IC50 in data set [2] (setting [5]) is 290 ± 140 nM. Still for that read-out and setting: in the case of `CC(=O)N1CCc2cc(C)ccc21` [Compound 4q, 1-(5-Methylindolin-1-yl)ethan-1-one] it was 220 ± 20 nM; in that of `CC(=O)N1CCc2cc(C#N)ccc21` [Compound 4r, 1-Acetylindoline-5-carbonitrile], over 10000 nM; in that of `CC(=O)N1CCc2cc(F)ccc21` [Compound 4s, 1-(5-Fluoroindolin-1-yl)ethan-1-one], 350 ± 40 nM. Regarding `COc1ccc2c(c1)CCN2C(C)=O` [Compound 4t, 1-(5-Methoxyindolin-1-yl)ethan-1-one], in data set [2] (setting [5]), the concentration for half-maximal inhibition (IC50) amounted to 670 ± 80 nM. On the same count and under the same terms, in the case of `CC(=O)N1CCc2cc(C(F)(F)F)ccc21` [Compound 4u, 1-(5-(Trifluoromethyl)indolin-1-yl)ethan-1-one] it was 520 ± 50 nM; in that of `CC(=O)N1CCc2ccc(Cl)c(Cl)c21` [Compound 4x, 1-(6,7-Dichloroindolin-1-yl)ethan-1-one], 2200 ± 600 nM. As for `CC(C)C(=O)N1CC2(CC2)c2c(Cl)cccc21` [Compound 5a, 1-(4′-Chlorospiro[cyclopropane-1,3′-indolin]-1′-yl)-2-methylpropan-1-one], the half-inhibitory concentration (IC50) in data set [2] (setting [6]) came to 4400 ± 300 nM. Still for that read-out and setting: as for `CC(=O)n1ccc2c(Cl)cccc21` [Compound 5c, 1-(4-Chloro-1H-indol-1-yl)ethan-1-one], the figure is 730 ± 40 nM; as for `CC(=O)N1CCOc2c(Cl)cccc21` [Compound 5e, 1-(8-Chloro-2,3-dihydro-4H-benzo[b][1,4]oxazin-4-yl)ethan-1-one], 8500 ± 2100 nM.

On to `O=C1OCC2Cc3ccccc3N12` (centres unmarked) [Compound 5h, 9,9a-Dihydro-1H,3H-oxazolo[3,4-a]indol-3-one], for which the IC50 in data set [2] (setting [6]) was 6100 ± 700 nM.

With `O=C1COCC2Cc3ccccc3N12` (centres unmarked) [Compound 5i, 10,10a-Dihydro-1H-[1,4]oxazino[4,3-a]indol-4(3H)-one], in data set [2] (setting [6]), the IC50 fell in the range of 1600 to 10000 nM. Consider `O=C1CCC2Cc3cc(Cl)ccc3N12` (centres unmarked) [Compound 5j, 7-Chloro-1,2,9,9a-tetrahydro-3H-pyrrolo[1,2-a]indol-3-one], for which the IC50 in data set [2] (setting [6]) is 1200 ± 400 nM. Turning to `O=C1CCC2Cc3c(Cl)cccc3N12` (centres unmarked) [Compound 5k, 8-Chloro-1,2,9,9a-tetrahydro-3H-pyrrolo[1,2-a]indol-3-one], the IC50 in data set [2] (setting [6]) is 490 ± 30 nM. Still for that read-out and setting: in the case of `CC12CCC(=O)N1c1ccccc1C2` (centres unmarked) [Compound 5l, 3a-Methyl-3,4-dihydro-2H-pyrrolo[1,2-a]indol-1-one] it was 2100 ± 310 nM. `O=C1N2c3ccccc3CC2CC1(F)F` (centres unmarked) [Compound 5m, 2,2-Difluoro-1,2,9,9a-tetrahydro-3H-pyrrolo[1,2-a]indol-3-one]: in data set [1] (setting [3]), the half-life at 1 h worked out at 16 min. Turning to `Clc1ccc2c(c1Cl)CCN2` [Compound 5n, 4,5-Dichloroindoline], the IC50 in data set [2] (setting [6]) stood at 3600 ± 670 nM. Turning to `CCN1CCc2c(Cl)cccc21` [Compound 5o, 4-Chloro-1-ethylindoline hydrochloride], the half-maximal inhibitory concentration (IC50) in data set [2] (setting [6]) was over 10000 nM.

These data come from PMC10626578, “Designed switch from covalent to non-covalent inhibitors of carboxylesterase Notum activity” (European Journal of Medicinal Chemistry, 2023).
